Key:
MAP kinase [1] = experiment: Inhibition of EGF-stimulated MAP kinase activity in Rat1 cells (Example 2, western blot with anti-active-MAPK antibodies, densitometry); format: cell-based, rat; conditions: compound 10^-4 M preincubated about 30 min; for Inhibition of MAP Kinase activity (% of Control), 15 minute activation by EGF: EGF 25 ng/ml for 15 minutes
Procedure: Rat1 cells grown in a series of cell culture dishes were prepared in the same manner described above in Example 1. The cells were serum-starved for 16 hours. Three groups of cell culture dishes containing Rat1 cells were each preincubated for about 30 minutes with solution containing the pheromone compound, trans-3, cis-7-tetradecadienyl-acetate at a concentration of 10^−4 M, with a solution containing the pheromone compound, trans-3, cis-8-tetradecadienyl-acetate at a concentration of 10^−4 M, or a control solution absent any pheromone compound. After preincubation, all of the Rat1 cells were stimulated with epidermal growth factor (EGF) (25 ng/ml) for about 15 minutes for one group and 30 minutes for a second group. The Rat1 cells were then washed with phosphate buffered saline (PBS) and lysed with RIPA buffer. The proteins were then separated by sodium dodecyl sulfate-polyacrylamide gel electrophoresis (SDS-PAGE) and probed with anti-active-MAPK antibodies. The inhibitory effect of the pheromone compound on MAPK activity was calculated as the percent EGF-induced activity as indicated by densitometry analysis as compared to the control receiving no pheromone compound.

MAP kinase [2] = experiment: Screening method for pheromone compounds having MAP kinase modulating activity in Rat1 cells (Example 1); format: cell-based, rat; conditions: observed on screening in accordance with the described methods
Procedure: In a preferred screening method, as set forth in Example 1 herein, pheromone compounds with MAP kinase modulating activity are identified using Rat1 cells grown in cell culture dishes. Samples of the pheromone compound are added to respective cell culture dishes containing the Rat1 cells and incubated. A control group is established by treating a separate group of cell culture dishes containing Rat1 cells with the same solutions absent the pheromone compound. After incubation, the Rat1 cells are stimulated with epidermal growth factor to stimulate MAP kinase activation in the Rat1 cells. Upon completion of the incubation period, the Rat1 cells in each of the culture dishes are separately processed to obtain the corresponding cell extract containing proteins indicative of active kinase. The proteins are then separated using known electrophoresis techniques and prepared as a blot for the detection and measurement of active MAP kinase. The resulting blot is analyzed using densitometric techniques to measure the corresponding activity of the tested pheromone compound.
Rat1 cells were grown in 6 cm cell culture dishes in a tissue culture incubator at 37° C. in an atmosphere containing 5% carbon dioxide. The cells were serum-starved for 16 hours. […] A control group was established by adding to the remaining cell culture dishes the same solution absent the pheromone compound. After the 15 minute period, the Rat1 cells were stimulated with epidermal growth factor (EGF) (50 ng/ml) for about 15 minutes for one group and 30 minutes for a second group.
The Rat1 cells were then treated to remove the corresponding incubation medium and then the cells were rinsed twice each with 5 ml of cold phosphate buffered saline (PBS) and once with 5 ml of cold homogenizing buffer (Buffer H) containing 50 mM of β-glycerophosphate, (pH 7.3), 1.5 mM of ethylenebis(oxyethylenenitrilo)tetraacetic acid (EGTA), 1 mM of ethylenediaminetetraacetic acid (EDTA), 1 mM of dithiothreitol (DTT), 0.1 mM sodium orthovanadate, 1 mM benzamidine, 10 μg/ml of aprotinin, 10 μg/ml of leupeptin, and 2 μg/ml of pepstatin (2 μg/ml)+1% Triton-X-100.
The cells were harvested and lysed with 350 μl of cold Buffer H. Alternatively, the cells may be harvested and lysed with radioimmunoprotein assay buffer (RIPA buffer). Each extract was then centrifuged at 15,000×g for 15 minutes at 4° C. The resulting supernatants contained the protein extracts to be examined and were transferred to fresh, pre-cooled test tubes and kept on ice.
The proteins were then separated by sodium dodecyl sulfate-polyacrylamide gel electrophoresis (SDS-PAGE) and transferred, by western blotting, onto a nitrocellulose membrane.
The blot produced above was blocked with 2% bovine serum albumin (BSA) in Tris-buffered saline/Tween-20 (TBST) for 1 hour. The blot was then incubated with a monoclonal anti-active MAP kinase antibody obtained from Sigma, and diluted according to the manufacturer recommendations. The blot was incubated overnight at 4° C. Alternatively, the blot may also be incubated for about 30 minutes at 37° C., or from one to two hours at room temperature.
The treated blot was placed in a flat container and washed at least 3 times for 15 minutes each with TBST buffer at room temperature. The blot was then incubated with alkaline phosphatase-conjugated goat anti-mouse IgG obtained from Jackson Laboratories, diluted according to the manufacturer recommendations in TBST buffer for 45 minutes at room temperature. The blot was then subjected to a second washing, repeated 3 times, for 10 minutes each with TBST. An alkaline phosphatase (AP) detection technique was utilized to detect and measure the presence of active MAP kinase. Enhanced MAP kinase activity as compared to control is evidence that the compound is a MAP kinase activator. Lowered MAP kinase activity as compared to control is evidence that the compound is a MAP kinase inhibitor. […]

Compound	Inhibition of MAP Kinase activity (% of Control), 15 minute activation by EGF (MAP kinase [1])	Inhibition of MAP Kinase activity (% of Control), 30 minute activation by EGF (MAP kinase [1]; EGF 25 ng/ml for 30 minutes)	mitogen-activating protein kinase modulation activity (activator or inhibitor) (MAP kinase [2])
CCCCCC/C=C\CC/C=C/CCOC(C)=O [Trans-3,Cis-7-Tetradecadienyl-acetate]	75%	85%	inhibitors
CCCCC/C=C\CCC/C=C/CCOC(C)=O [Trans-3,Cis-8-Tetradecadienyl-acetate]	50%		inhibitors
